From patent publication US3983248A (priority 1971, dated 1976)
Structures can show the parent of a compound that is named as a salt.

Key:
[1] = tested on: virus (Vaccinia IHD, Encephalomyocarditis, Influenza Ao (PR8), Influenza A/Equine (Prague), Mengo, Semliki Forest); assay type: in vivo, mice; conditions: prior art compound prepared and tested by applicants
[2] = toxicity comparison of prior art compound with the compounds of the invention; conditions: prior art compound prepared and tested by applicants
From the text: The closest prior art compound known to applicants is 1,5-bis[N-(4-diethylamino- 1-methylbutyl)sulfamoyl]-anthraquinone. The preparation of this compound is disclosed in I. Kh. Fel'dman, Z. Ovsyanaya, and E. Kozlov, Tr. Leningr. Khim.-Farmatsevt. Inst. 1960 (11), 48-53; CA 59: 11312.

[3] = hygroscopicity; assay type: physicochemical; conditions: dihydrochloride salt
Method: Following the procedure of Example 1 and using anthraquinone-2,7-disulfonylchloride, the title compound was obtained. Since the dihydrochloride was hygroscopic, it was converted to the free base by stirring it in a 10% sodium carbonate solution and recrystallized from a mixture of ether and hexane, m.p. 93°-95°.

[4] = tested on: Vaccinia IHD; assay type: in vivo, mice; conditions: Vaccinia IHD 24 ID50, subcutaneous in tail; lesion scored on 7th day; subcutaneous treatment 28, 22, 4 hrs. pre- and 2, 20, 26 hrs. post-challenge; 2 to 50 mg. per kg.

SMILES: CCN(CC)CCCC(C)NS(=O)(=O)c1cccc2c1C(=O)c1cccc(S(=O)(=O)NC(C)CCCN(CC)CC)c1C2=O (stereo not shown) [1,5-bis[N-(4-diethylamino-1-methylbutyl)sulfamoyl]-anthraquinone]
- activity in antiviral tests used with the compounds of this invention [1]: inactive
- toxicity relative to the compounds of this invention [2]: very much more toxic than the compounds of this invention

SMILES: CCCCN(CCCC)CCCNS(=O)(=O)c1ccc2c(c1)C(=O)c1cc(S(=O)(=O)NCCCN(CCCC)CCCC)ccc1C2=O [Example 3 dihydrochloride]
- hygroscopicity [3]: hygroscopic

SMILES: CCCCN(CCCC)CCCNS(=O)(=O)c1ccc2c(c1)C(=O)c1cc(S(=O)(=O)NCCCN(CCCC)CCCC)ccc1C2=O [Example 6, 2,7-Bis-[N-(3-dibutylaminopropyl)sulfamoyl]-anthraquinone]
- antiviral activity: lesions of treated animals compared to controls [4]: fewer lesions
